Measurements published in US20230062537A1, “Therapy of oxygen pulses for treating neurodegenerative disorders such as Parkinson Disease (PD), Alzheimer’s Disease (AD), Amiotrophic Lateral Sclerosis (ALS) or Motor Neuron Disease (MND) and other dementias, and Lymphedema, Arthritis and Depression” (priority 2021, published 2023).
Where two headings read alike, the source gives them in different places.

How the values were obtained:
[1] = for oxygen transported to the tissues: cardiac flow of 1 l/min
Description: At sea level, (non humidified) room air contains 21% O2 which translates into an oxygen partial pressure of 160 mm Hg [0.21*760 mm Hg)]. However, the body mean tissue oxygen levels are much lower than this level. Alveolar air contains 14% oxygen (106 mm Hg), arterial oxygen concentration is 12% (91 mm Hg), venous oxygen levels are 5.3% (40 mm Hg), and mean tissue intracellular oxygen concentration is only 3% (22 mm Hg (Guyton, and Hall, 1996). Furthermore, direct microelectrode measurements of tissue O2 reveal that parts of the brain normally experience O2 levels considerably lower than total body mean tissue oxygen levels, reflecting the high oxygen utilization in brain. These studies also highlight considerable regional variation in average brain oxygen levels (Table 1) that have been attributed to local differences in capillary density. Mean brain tissue oxygen concentration in adult rates is 1.5% (Silver and Erecinska, 1988), and mean fetal sheep brain oxygen tension has also been estimated at 1.6% (Koos and Power, 1987).
If we inspire air at normal pressure of 760 mm Hg (O221%) alveolar oxygen content will be 14% (106 mm Hg) and arterial oxygen content 12% (91 mm Hg). However arterial oxygen content includes oxygen content in the Hemoglobin plus oxygen absorbed in the plasma. (Mathews and Van Holde, 2002)
Oxygen content in the Hemoglobin (ml/dL)=Hb (g/dL)*% Sat.*[…]
At 100 mmHg oxygen pressure and 100% Hemoglobin saturation Oxygen content in the arterial blood is 20.7 ml/dL
If we consider a normal cardiac flow of 1 l/min, oxygen transported to the tissues would be […] or 0.924 mol-g of oxygen (5.57*10^23 molecules of oxygen/min.).
If we inspire oxygen enriched air of 31% O2, arterial pressure of oxygen would be (31/21)*100=147 mm Hg
Also oxygen content at the brain tissue will be:
Oxygen content in the arterial blood=Oxygen in Hemoglobin+Oxygen absorbed in the plasma
If we inspire oxygen of 95% O2, arterial pressure of oxygen would be (95/21)*100=452 mm Hg

Arthritis = conditions: method No 4
Description: (§1) The pulse oxygen therapy as described therein for treating neurodegenerative diseases (PD, AD, ALS, MS, Arthritis, Lymphedema and Depression) to patients with mild, moderate, severe, or critical conditions may be applied as follow: • 1. […] Patients must have comfortable accommodation (temperature, illumination and sanitary conditions). • 2. As prophylactic treatment (elder patients and/or with chronic diseases) treat patients with 6 l/min oxygen flow for 60 min once a day during 5 days. • 3. As treatment for patients with mild disease (initial symptoms) treat patients with 6 l/min oxygen flow for 60 min once a day during 10 days. • 4. As treatment for patients with moderate disease treat patients with 6 l/min oxygen flow for 60 min twice a day during 10 days. • 5. As treatment for patients with severe disease treat patients with 6 l/min oxygen flow for 60 min four time a day during 10 days. • 6. As treatment for patients with critical disease treat patients with 6 l/min oxygen flow for 60 min every 3 hours during 10 days.

Parkinson Disease = test system: Parkinson Disease
Description: as §1

Depression = conditions: method No 4
Description: as §1

Lymphedema = conditions: method No 4
Description: as §1

[2] = test system: PD, AD, ALS, Arthritis, Lymphedema, and Depression patients
Description: In our therapy the oxygen pulses are administered in consonance with the advance of the neurodegenerative diseases (PD, AD, ALS, MS, Arthritis, Lymphedema and Depression) as described as follow: • a. At the beginning of the neurodegenerative disease with the apparition of the first symptoms using procedure 1 or 2 twice a day for 5 days. • b. When the neurodegenerative disease has been detected, with a medical diagnostic, using procedure 1 or 2 four times a day for 10 days. • c. With an advanced neurodegenerative disease using procedure 1 or 2 eight times a day for 10 days

O=O [oxygen]
additional flow of oxygen ([1]; 31% O2 inspired): 0.15 L/min
increase of the oxygen transport to the tissues ([1]; 31% O2 inspired): 0.72%
Oxygen content in the arterial blood ([1]; 31% O2 inspired, 147 mm Hg): 20.85 ml/dL
oxygen transported to the tissues ([1]; 31% O2 inspired): 20.85 l Oxygen/min
Oxygen at the brain level, Cortex (gray) ([1]; 31% oxygen inspired): 3.69-7.79 % O2
Oxygen at the brain level, Cortex (white) ([1]; 31% oxygen inspired): 1.17-3.0 % O2
Oxygen at the brain level, Hippocampus ([1]; 31% oxygen inspired): 3.8-5.7 % O2
Oxygen at the brain level, Hypothalamus ([1]; 31% oxygen inspired): 2.0-3.0 % O2
Oxygen at the brain level, Pons, fornix ([1]; 31% oxygen inspired): 0.14-0.58 % O2
additional flow of oxygen ([1]; 95% O2 inspired): 1.4 L/min
increase of oxygen flow to the tissues ([1]; 95% O2 inspired): 6.76%
Oxygen content in the arterial blood ([1]; 95% O2 inspired, 452 mm Hg): 21.80 ml/dL
oxygen transported to the tissues ([1]; 95% O2 inspired): 21.80 l Oxygen/min
Oxygen at the brain level, Cortex (gray) ([1]; 95 % oxygen inspired): 11.3-23.8 % O2
Oxygen at the brain level, Cortex (white) ([1]; 95 % oxygen inspired): 3.58-9.18 % O2
Oxygen at the brain level, Hippocampus ([1]; 95 % oxygen inspired): 11.6-17.4 % O2
Oxygen at the brain level, Hypothalamus ([1]; 95 % oxygen inspired): 6.12-9.18 % O2
Oxygen at the brain level, Pons, fornix ([1]; 95 % oxygen inspired): 0.42-1.77 % O2
arterial pressure of oxygen ([1]; oxygen enriched air of 31% O2 inspired): 147 mm Hg
arterial pressure of oxygen ([1]; oxygen of 95% O2 inspired): 452 mm Hg
deformation at follow-up (Arthritis; after 12 months): no more deformation has been observed
outcome after 10 days (Arthritis; after 10 days): a notable recuperation takes place
time to begin of recovery (Arthritis; person, severe deformation in hands): 5 days
symptoms at follow-up (Parkinson Disease; after 12 months, method No 4): no AD symptoms has developed
time to recovery (Parkinson Disease; patient, moderate conditions, method No 4: 6 l/min oxygen flow 60 min twice a day during 10 days): 5 days
Depression at follow-up (Depression; after 11 months): no more Depression has been detected
outcome after 10 days (Depression; after 10 days): a notable recuperation takes place
time to begin of recovery (Depression; person, severe Depression): 5 days
limbs inflammation at follow-up (Lymphedema; after 11 months): no limbs inflammation has developed
outcome after 10 days (Lymphedema; after 10 days): a notable recuperation takes place
time to begin of recovery (Lymphedema; person, severe limbs inflammation after cancer radiotherapy): 5 days
use of the therapy in patients [2]: satisfactory used
